From EP4613259A1, “PHARMACEUTICAL, DERMATOLOGICAL OR COSMETIC COMPOUNDS AND COMPOSITIONS FOR REDUCING MELANIN SYNTHESIS, STIMULATING TYPE I COLLAGEN PRODUCTION, SKIN DEPIGMENTATION AND/OR PROMOTING A SKIN ANTI-AGING EFFECT IN AN INDIVIDUAL OR ANIMAL, USES AND METHODS” (Chemyunion Ltda, priority 2022, dated 2024)
Where a SMILES comes first, the peptide text is derived from it. The star is where a group is joined. Palmitoyl = CCCCCCCCCCCCCCCC(=O)*

Key:
type I collagen = assay: Stimulation of type I collagen synthesis in ex vivo human skin fragments (immunofluorescence, semi-quantification); format: cell-based; conditions: skin explants (n=5)
Method: Example 2: Evaluation of collagen synthesis stimulation in human skin fragments.
Skin explants (n=5) obtained from a surgical procedure performed by the ophthalmologic plastic surgery clinic were treated for 72 h with a formulation containing the peptide SEQ ID No. 1 ( Pal - Gln - His- Trp - Val-OH ) (at 50 ppm or 100 ppm ) and with the same formulation without the addition of the peptide (placebo). After incubation with the test products as described above, the skin fragments were fixed in 4% paraformaldehyde (pH 7.4) for 24 h. After fixation, the material was transferred to a 30% sucrose solution for cryopreservation and then embedded in tissue freezing medium, followed by serial sections of approximately 10 µm thickness made by cryostat and collected directly on silanized glass slides. The skin sections were then subjected to the specific labeling process for type I collagen for subsequent immunofluorescence analysis; the records were obtained using a fluorescence optical microscope coupled to a photographic camera.

[1] = system: melanin synthesis in human skin fragments; assay: Inhibition of melanin synthesis in ex vivo human skin fragments (Fontana Masson staining, semi-quantification); format: cell-based; conditions: skin explants (n=5), 72h
Method: Example 1: Evaluation of inhibition of melanin synthesis in human skin fragments.
Skin explants (n=5), obtained from a surgical procedure performed by an ophthalmological plastic surgery clinic, were treated for 72h with a formulation containing the peptide SEQ ID No. 1 (Pal-Gln-His-Trp-Val-OH), (at 50 ppm or 100 ppm) and with the same formulation without the addition of the peptide (placebo).
After incubation with the test products as described above, the skin fragments were fixed in 4% paraformaldehyde (pH 7.4) for 24 hours. After fixation, the material was transferred to 30% sucrose solution for cryopreservation and then embedded in tissue freezing medium, followed by serial sections of approximately 10 µm thickness made by cryostat and collected directly on silanized glass slides. Then, the skin sections were stained by the Fontana Masson technique.
Subsequently, the slides were analyzed and recorded using an optical microscope coupled to a camera.

## CCCCCCCCCCCCCCCC(=O)N[C@@H](CCC(N)=O)C(=O)N[C@@H](Cc1cnc[nH]1)C(=O)N[C@@H](Cc1c[nH]c2ccccc12)C(=O)N[C@H](C(=O)O)C(C)C [SEQ ID No. 1, Pal-Gln-His-Trp-Val-OH] (Palmitoyl-QHWV-OH)
Type I collagen; 50 ppm peptide in formulation, 72h
  stimulated collagen I production compared to the placebo group: 63%
Type I collagen; 100 ppm peptide in formulation, 72 h, protein = type I collagen
  increase in protein synthesis compared to the levels observed in the placebo group: 71%
[1]; 50 ppm peptide in formulation
  reduces melanin production compared to the placebo group: 66%
[1]; 100 ppm peptide in formulation
  inhibits pigment synthesis compared to the levels observed in the placebo group: 61%
